Data published in patent US8993574B2, “Pyrrole antifungal agents” (F2G Ltd, priority 2008, dated 2015).
Converted amounts (≈) assume the structure as drawn.

How the values were obtained:
Type in all cases: cell-based
[1] = tested on: Aspergillus flavus; test: MIC, YAG medium; conditions: 24 h at 35° C, MIC banded into grades; for MIC: Aspergillus flavus, 24 h, read-out: MIC grade, A. flavus
Method: (§1) Between 1 and 5 mgs of compound were accurately weighed out into a sterile Eppendorf tube. The compound was dissolved in DMSO to give a solution containing 5 mg/mL. Tubes were stored at −20° C. until required.
(§2) On the day of testing thawed solutions were vortex mixed to ensure homogeneity. 30 μL of solution was removed and added to 570 μL of sterile water in a separate sterile Eppendorf. The thoroughly mixed solution was used to prepare a series of doubling dilutions in water, in a deep well plate. Thirteen replicate plates were prepared using a Minitrak by aspirating 20 μL from each well into eleven clear polystyrene 96 well plates.
(§3) Spores of Aspergillus spp. (Aspergillus fumigatus [two strains], Aspergillus terreus [two strains], Aspergillus niger and Aspergillus flavus) were harvested from cultures grown on Sabarauds agar for 5 days, and resuspended in PBS/Tween 80 to approx 1×10^7 cfu/mL. Each organism suspension was diluted in YAG medium (1% glucose, 1% ammonium chloride and 0.5% yeast extract) to 0.5−2×10^4 cfu/mL. 80 μL of an organism suspension was added to each well of the plate containing drug dilutions.
(§4) This produced MIC plates with a drug range 50-0.05 mg/L and organism inocula of 1−2×10^4 cfu/mL for Aspergillus spp. All plates were incubated for 24 h at 35° C. Growth was assessed by monitoring the optical density at 485 nm for each well. The MIC of a compound is the lowest drug concentration that inhibits growth of an organism by >70% compared with a drug free control. MICs are recorded as mg/L. In cases where the MIC of an organism is […] mg/L the MIC is repeated using a concentration range of 0.5-0.0005 mg/L.
(§5) The following organisms were tested: Aspergillus flavus, Aspergillus fumigatus AF293 and AF210, Aspergillus niger, Aspergillus terreus AT4 and AT49, Candida albicans, Candida glabrata, Candida krusei, Candida parapsilosis and Candida tropicalis.

[2] = tested on: Aspergillus fumigatus AF210; test: MIC, YAG medium; conditions: 24 h at 35° C, MIC banded into grades; for MIC: Aspergillus fumigatus, read-out: MIC grade, A. fumigatus 210
Method: as §1, §2, §3, §4, §5

[3] = tested on: Aspergillus fumigatus AF293; test: MIC, YAG medium; conditions: 24 h at 35° C, MIC banded into grades; for MIC: Aspergillus fumigatus, read-out: MIC grade, A. fumigatus
Method: as §1, §2, §3, §4, §5

[4] = tested on: Aspergillus niger; test: MIC, YAG medium; conditions: 24 h at 35° C, MIC banded into grades; for MIC: Aspergillus niger, read-out: MIC grade, A. niger
Method: as §1, §2, §3, §4, §5

[5] = tested on: Aspergillus terreus AT49; test: MIC, YAG medium; conditions: 24 h at 35° C, MIC banded into grades; for MIC: Aspergillus terreus, read-out: MIC grade, A. terreus 49
Method: as §1, §2, §3, §4, §5

[6] = tested on: Aspergillus terreus AT4; test: MIC, YAG medium; conditions: 24 h at 35° C, MIC banded into grades; for MIC: Aspergillus terreus, read-out: MIC grade, A. terreus
Method: as §1, §2, §3, §4, §5

[7] = tested on: Aspergillus flavus; test: MIC, RPMI medium; conditions: MIC banded into grades; for MIC: Aspergillus flavus, read-out: MIC grade, A. flavus
Method: as §1, §2
(§6) Assays were also performed in RPMI medium for both Aspergillus spp. (strains described above) and Candida spp. (Candida albicans, Candida glabrata, Candida krusei, Candida parapsilosis and Candida tropicalis). To perform MIC tests in this medium, dilutions of compounds are prepared in microtitre plates as described above. Fungal strains to be tested are grown and harvested in an identical manner to that described above, and each organism suspension was diluted in RPMI medium, containing 2% glucose and 0.135 M MOPS buffer (pH 7.0) to 0.5-2×10^4 cfu/mL, rather than in YAG medium. 80 μL of an organism suspension was added to each well of the plate containing drug dilutions.
(§7) This produced MIC plates with a drug range 50-0.05 mg/L and organism inocula of 1−2×10^4 cfu/mL. All plates were incubated for 24-48 h at 35° C. Growth was assessed by monitoring the optical density at 485 nm for each well. The MIC of a compound is the lowest drug concentration that inhibits growth of an organism by >80% compared with a drug free control.
as §5

[8] = tested on: Aspergillus fumigatus AF210; test: MIC, RPMI medium; conditions: for MIC: Aspergillus fumigatus, AF210, MIC banded into grades, read-out: MIC grade, A. fumigatus 210
Method: as §1, §2, §6, §7, §5

[9] = tested on: Aspergillus fumigatus AF293; test: MIC, RPMI medium; conditions: for MIC: Aspergillus fumigatus, AF293, MIC banded into grades, read-out: MIC grade, A. fumigatus
Method: as §1, §2, §6, §7, §5

[10] = tested on: Aspergillus niger; test: MIC, RPMI medium; conditions: MIC banded into grades; for MIC: Aspergillus niger, read-out: MIC grade, A. niger
Method: as §1, §2, §6, §7, §5

[11] = tested on: Aspergillus terreus AT49; test: MIC, RPMI medium; conditions: for MIC: Aspergillus terreus, AT49, MIC banded into grades, read-out: MIC grade, A. terreus 49
Method: as §1, §2, §6, §7, §5

[12] = tested on: Aspergillus terreus AT4; test: MIC, RPMI medium; conditions: for MIC: Aspergillus terreus, AT4, MIC banded into grades, read-out: MIC grade, A. terreus
Method: as §1, §2, §6, §7, §5

| SMILES | MIC [1] [µg/mL] | MIC [2] [µg/mL] | MIC [3] [µg/mL] | MIC [4] [µg/mL] | MIC [5] [µg/mL] | MIC [6] [µg/mL] | MIC [7] [µg/mL] | MIC [8] [µg/mL] | MIC [9] [µg/mL] | MIC [10] [µg/mL] | MIC [11] [µg/mL] | MIC [12] [µg/mL] | also measured |
| --- | --- | --- | --- | --- | --- | --- | --- | --- | --- | --- | --- | --- | --- |
| Cc1cc(-c2ccccc2)c(C(=O)C(=O)Nc2cccc3c(N4CCN(C)CC4)cccc23)n1C [Example 49, 2-(1,5-Dimethyl-3-phenyl-1H-pyrrol-2-yl)-N-[5-(4-methyl-piperazin-1-yl)-naphthalen-1-yl]-2-oxo-acetamide] | < 1 | 1 to 10 (≈ 2.14 to 21.4 µM) | 1 to 10 (≈ 2.14 to 21.4 µM) | > 10 | < 1 | > 10 | 1 to 10 (≈ 2.14 to 21.4 µM) | > 10 | 1 to 10 (≈ 2.14 to 21.4 µM) | > 10 | 1 to 10 (≈ 2.14 to 21.4 µM) | 1 to 10 (≈ 2.14 to 21.4 µM) |  |
| Cc1cc(-c2ccccc2)c(C(=O)C(=O)Nc2ccc3ccccc3c2)n1C [Example 44, 2-(1,5-Dimethyl-3-phenyl-1H-pyrrol-2-yl)-N-naphthalen-2-yl-2-oxo-acetamide] | < 1 | < 1 | < 1 | < 1 | < 1 | < 1 | < 1 | < 1 | < 1 | < 1 | < 1 | < 1 |  |
| Cc1cc(-c2ccccc2)c(C(=O)C(=O)Nc2ccc(N3CCN(c4ccccn4)CC3)cc2F)n1C [Example 95, 2-(1,5-Dimethyl-3-phenyl-1H-pyrrol-2-yl)-N-[2-fluoro-4-(4-pyridin-2-yl-piperazin-1-yl)-phenyl]-2-oxo-acetamide] | < 1 | < 1 | < 1 | < 1 | < 1 | < 1 | < 1 | < 1 | < 1 | < 1 | < 1 | < 1 |  |
| COCCn1c(C)cc(-c2ccccc2)c1C(=O)C(=O)Nc1ccc(-c2ncco2)cc1 [Example 149, 2-[1-(2-Methoxy-ethyl)-5-methyl-3-phenyl-1H-pyrrol-2-yl]-N-(4-oxazol-2-yl-phenyl)-2-oxo-acetamide] | < 1 | < 1 | < 1 | < 1 | < 1 | < 1 | > 10 | 1 to 10 (≈ 2.33 to 23.3 µM) | 1 to 10 (≈ 2.33 to 23.3 µM) | < 1 | 1 to 10 (≈ 2.33 to 23.3 µM) | 1 to 10 (≈ 2.33 to 23.3 µM) |  |
| Cc1cc(C)nc(N2CCN(c3ccc(NC(=O)C(=O)c4c(-c5ccccc5)cc5n4CCCCC5)cc3)CC2)c1 [41 a] |  |  |  |  |  |  |  |  |  |  |  |  | MIC grade, A. flavus [1]: 3 (A grade of 3 represents an MIC of less than 1 mg/L); MIC grade, A. fumigatus 210 [2]: 3 (A grade of 3 represents an MIC of less than 1 mg/L); MIC grade, A. fumigatus [3]: 3 (A grade of 3 represents an MIC of less than 1 mg/L); MIC grade, A. niger [4]: 3 (A grade of 3 represents an MIC of less than 1 mg/L); MIC grade, A. terreus 49 [5]: 3 (A grade of 3 represents an MIC of less than 1 mg/L); MIC grade, A. terreus [6]: 3 (A grade of 3 represents an MIC of less than 1 mg/L); MIC grade, A. flavus [7]: 1 (a grade of 1 represents an MIC of greater than 10 mg/L); MIC grade, A. fumigatus 210 ([8]; MIC banded into grades): 1 (a grade of 1 represents an MIC of greater than 10 mg/L); MIC grade, A. fumigatus ([9]; MIC banded into grades): 2 (A grade of 2 represents an MIC of from 1 to 10 mg/L); MIC grade, A. niger [10]: 1 (a grade of 1 represents an MIC of greater than 10 mg/L); MIC grade, A. terreus 49 ([11]; MIC banded into grades): 3 (A grade of 3 represents an MIC of less than 1 mg/L); MIC grade, A. terreus ([12]; MIC banded into grades): 2 (A grade of 2 represents an MIC of from 1 to 10 mg/L) |
| COCCOCn1c(C)cc(-c2ccccc2)c1C(=O)C(=O)Nc1ccc(N2CCN(c3cc(C)cc(C)n3)CC2)cc1 [Example 138, N-{4-[4-(4,6-Dimethyl-pyridin-2-yl)-piperazin-1-yl]-phenyl}-2-[1-(2-methoxy-ethoxymethyl)-5-methyl-3-phenyl-1H-pyrrol-2-yl]-2-oxo-acetamide] | 1 to 10 (≈ 1.72 to 17.2 µM) | < 1 | < 1 | < 1 | < 1 | < 1 | 1 to 10 (≈ 1.72 to 17.2 µM) | < 1 | < 1 | 1 to 10 (≈ 1.72 to 17.2 µM) | 1 to 10 (≈ 1.72 to 17.2 µM) | 1 to 10 (≈ 1.72 to 17.2 µM) |  |
| Cc1cc(C)nc(N2CCN(c3ccc(NC(=O)C(=O)c4ccc(C)n4-c4ccccc4)cc3)CC2)c1 [Example 3, N-{4-[4-(4,6-Dimethyl-pyridin-2-yl)-piperazin-1-yl]-phenyl}-2-(5-methyl-1-phenyl-1H-pyrrol-2-yl)-2-oxo-acetamide] | 1 to 10 (≈ 2.03 to 20.3 µM) | 1 to 10 (≈ 2.03 to 20.3 µM) | > 10 | > 10 | < 1 | < 1 | > 10 | > 10 | > 10 | > 10 | 1 to 10 (≈ 2.03 to 20.3 µM) | 1 to 10 (≈ 2.03 to 20.3 µM) |  |
| Cc1cc(-c2ccccc2)c(C(=O)C(=O)Nc2cccc3c(F)cccc23)n1C [Example 127, 2-(1,5-Dimethyl-3-phenyl-1H-pyrrol-2-yl)-N-(5-fluoro-naphthalen-1-yl)-2-oxo-acetamide] | < 1 | 1 to 10 (≈ 2.59 to 25.9 µM) | > 10 | < 1 | < 1 | < 1 | < 1 | > 10 | > 10 | < 1 | < 1 | < 1 |  |
| Cc1cc(-c2ccccc2)c(C(=O)C(=O)Nc2cccc3ccccc23)n1C [Example 16, 2-(1,5-Dimethyl-3-phenyl-1H-pyrrol-2-yl)-N-naphthalen-1-yl-2-oxo-acetamide] | < 1 | < 1 | < 1 | < 1 | < 1 | < 1 | < 1 | 1 to 10 (≈ 2.71 to 27.1 µM) | < 1 | < 1 | < 1 | < 1 |  |
